Measured values as given in patent publication US20230123695A1, “GLYCAN COMPOSITIONS AND METHODS OF USE” (DSM Nutritional Products, LLC, priority 2018, published 2023).

Key:
Assay type in all cases: cell-based, human fecal cultures
[1] = system: Firmicutes, Proteobacteria, and/or Actinobacteria; assay: Ex vivo fecal slurry assay, 16S rRNA sequencing (Example 11); conditions: 1% w/v fecal slurry from 12 subjects, glycan 0.5% w/v, 37° C., 18 hours, anaerobically; FIGS. 4-6
Source text: (§1) An ex vivo assay was designed to determine if glycans can be used to modulate a complex community of microorganisms and if the glycans produced consistent effects across communities obtained from multiple (twelve) subjects. Fecal samples and slurries were handled in an anaerobic chamber (AS-580, Anaerobe Systems) featuring a palladium catalyst. Glycans ara100, gal100, glu60man40, glu100, glu50gal50, gal33man33ara33, man75gal25, glu33gal33man34, glu33gal33Ara33, man100, man52glu29gal19 and commercially available glycans lactulose (Alfa Aesar) and FOS (Nutraflora FOS; NOW Foods, Bloomingdale Ill.) were included in the study. The fecal sample donations obtained from 12 subjects were stored at −80° C. To prepare working stocks the fecal samples were transferred into the anaerobic chamber and allowed to thaw.
Microbial beta-glucuronidase, found in Proteobacteria, Firmicutes, and Actinobacteria, is known to modify SN-38 glucuronide, which is used to treat cancer (e.g., colorectal cancer) and has the side-effect of diarrhea, by removing a sugar moiety, creating a compound that is toxic to intestinal epithelial cells. Decreasing the levels or activity of microbial beta-glucuronidase expressing microbes may increase the effectiveness of SN-38 glucuronidine treatment and/or decrease/prevent side effects.

[2] = system: Actinobacteria and/or Coriobacteriaceae/Gordonibacter; assay: Ex vivo fecal slurry assay, 16S rRNA sequencing (Example 13); conditions: 1% w/v fecal slurry from 12 subjects, glycan 0.5% w/v, 37° C., 18 hours, anaerobically; FIGS. 6 and 8
Source text: as §1
A microbial enzyme found in Actinobacteria and Coriobacteriaceae/Gordonibacter is known to hydrolyze ellagitannin to ellagic acid.

[3] = system: Enterococcaceae/Enterococcus and/or Bifidobacteriaceae/Bifidobacterium; assay: Ex vivo fecal slurry assay, 16S rRNA sequencing (Example 15); conditions: 1% w/v fecal slurry from 12 subjects, glycan 0.5% w/v, 37° C., 18 hours, anaerobically; FIGS. 3 and 10
Source text: as §1
A microbial enzyme, found in Enterococcus faecium, Lactobacillus mucosae, Bifidobacterium sp., and Eggerthella sp., is known to metabolize daidzin into equol, which binds estrogen receptor-beta and may be associated with lower risk/incidence of breast cancer. Increasing the levels or activity of microbes expressing said microbial enzyme may increase the have a preventative effect on cancer, e.g., breast cancer, or treat cancer, e.g., breast cancer.

[4] = system: Enterobacteriaceae/Escherichia/Shigella microbes; assay: Ex vivo fecal slurry assay, 16S rRNA sequencing (Example 17); conditions: 1% w/v fecal slurry from 12 subjects, glycan 0.5% w/v, 37° C., 18 hours, anaerobically; FIG. 14
Source text: as §1
Microbial beta-glucuronidase, found in bacteria that carry the uidA gene, e.g., Escherichia coli, is known to reactivate glucuronidated substrate, e.g., heterocyclic amines, (detoxified by hepatic glucuronidation), by removing the conjugate, generating a toxic compound. Decreasing the levels or activity of microbial beta-glucuronidase expressing microbes may decrease the generation of toxic, e.g., carcinogenic, compounds, which may have a preventative effect on cancer.

[5] = system: Enterococcaceae/Enterococcus and/or Enterobacteriaceae/Escherichia/Shigella microbes; assay: Ex vivo fecal slurry assay, 16S rRNA sequencing (Example 18); conditions: 1% w/v fecal slurry from 12 subjects, glycan 0.5% w/v, 37° C., 18 hours, anaerobically; FIGS. 3 and 14
Source text: as §1
A microbial enzyme, found in Enterococcus, Clostridium, Corynebacterium, Campylobacter, and Escherichia, is known to convert sweetener to a compound that can be toxic, e.g., converts cyclamate to cyclohexylamine, which can be toxic. Decreasing the levels or activity of microbes expressing said microbial enzyme may decrease the generation of toxic compounds.

[6] = system: Enterobacteriales/Enterobacteriaceae microbes; assay: Ex vivo fecal slurry assay, 16S rRNA sequencing (Example 19); conditions: 1% w/v fecal slurry from 12 subjects, glycan 0.5% w/v, 37° C., 18 hours, anaerobically; FIG. 15
Source text: as §1
Microbial phosphorylase, e.g., thymidine phosphorylase or uridine phosphorylase, found in Enterobacteria, e.g., K. pneumoniae, is known to deglycosylate sorivudine, inactivating it. Sorivudine is used to treat viral infection (e.g. herpes simplex virus 1 and varicella-zoster virus). Decreasing the levels or activity of microbes expressing said microbial phosphorylase may decrease the inactivation of sorivudine and increase the effectiveness of sorivudine treatment against viral infections.

[7] = system: Ruminococcaceae/Ruminococcus microbes; assay: Ex vivo fecal slurry assay, 16S rRNA sequencing (Example 21); conditions: 1% w/v fecal slurry from 12 subjects, glycan 0.5% w/v, 37° C., 18 hours, anaerobically; FIG. 17
Source text: as §1
A microbial enzyme found in Bacteroidetes (e.g., Bacteroidales) and mucolytic bacteria such as Ruminococcus gnavus, is known to cause metabolic and inflammatory response to emulsifying agents. Decreasing the levels or activity of microbes expressing said microbial enzyme may increase the effectiveness of emulsifying agents, e.g, carboxymethylcellulose or polysorbate-80, e.g., to decrease risk/incidence of metabolic syndrome and/or inflammation.

SMILES: OC[C@H]1O[C@@H](O[C@@H]2[C@@H](CO)OC(O)(CO)[C@H]2O)[C@H](O)[C@@H](O)[C@H]1O (mixture of isomers) [lactulose]
- levels of Firmicutes, Proteobacteria, and/or Actinobacteria [1]: appeared to decrease
- levels of Actinobacteria and/or Coriobacteriaceae/Gordonibacter [2]: appeared to decrease
- levels of Enterococcaceae/Enterococcus and/or Bifidobacteriaceae/Bifidobacterium [3]: appeared to increase
- levels of Enterobacteriaceae/Escherichia/Shigella microbes [4]: appeared to decrease
- levels of Enterococcaceae/Enterococcus and/or Enterobacteriaceae/Escherichia/Shigella microbes [5]: appeared to decrease
- levels of Enterobacteriales/Enterobacteriaceae microbes [6]: appeared to decrease
- levels of Ruminococcaceae/Ruminococcus microbes [7]: appeared to decrease
